What follows are molecules tested against human NLRP3 (Homo sapiens (Human), UniProt Q96P20) (assay: Scintillation Proximity (SPA) NLRP3 Assay: displacement of 3H-MCC950). Conditions: SPA IC50, displacement of 3H-MCC950.
Type: binding

Chain of human NLRP3 (Q96P20 whole entry): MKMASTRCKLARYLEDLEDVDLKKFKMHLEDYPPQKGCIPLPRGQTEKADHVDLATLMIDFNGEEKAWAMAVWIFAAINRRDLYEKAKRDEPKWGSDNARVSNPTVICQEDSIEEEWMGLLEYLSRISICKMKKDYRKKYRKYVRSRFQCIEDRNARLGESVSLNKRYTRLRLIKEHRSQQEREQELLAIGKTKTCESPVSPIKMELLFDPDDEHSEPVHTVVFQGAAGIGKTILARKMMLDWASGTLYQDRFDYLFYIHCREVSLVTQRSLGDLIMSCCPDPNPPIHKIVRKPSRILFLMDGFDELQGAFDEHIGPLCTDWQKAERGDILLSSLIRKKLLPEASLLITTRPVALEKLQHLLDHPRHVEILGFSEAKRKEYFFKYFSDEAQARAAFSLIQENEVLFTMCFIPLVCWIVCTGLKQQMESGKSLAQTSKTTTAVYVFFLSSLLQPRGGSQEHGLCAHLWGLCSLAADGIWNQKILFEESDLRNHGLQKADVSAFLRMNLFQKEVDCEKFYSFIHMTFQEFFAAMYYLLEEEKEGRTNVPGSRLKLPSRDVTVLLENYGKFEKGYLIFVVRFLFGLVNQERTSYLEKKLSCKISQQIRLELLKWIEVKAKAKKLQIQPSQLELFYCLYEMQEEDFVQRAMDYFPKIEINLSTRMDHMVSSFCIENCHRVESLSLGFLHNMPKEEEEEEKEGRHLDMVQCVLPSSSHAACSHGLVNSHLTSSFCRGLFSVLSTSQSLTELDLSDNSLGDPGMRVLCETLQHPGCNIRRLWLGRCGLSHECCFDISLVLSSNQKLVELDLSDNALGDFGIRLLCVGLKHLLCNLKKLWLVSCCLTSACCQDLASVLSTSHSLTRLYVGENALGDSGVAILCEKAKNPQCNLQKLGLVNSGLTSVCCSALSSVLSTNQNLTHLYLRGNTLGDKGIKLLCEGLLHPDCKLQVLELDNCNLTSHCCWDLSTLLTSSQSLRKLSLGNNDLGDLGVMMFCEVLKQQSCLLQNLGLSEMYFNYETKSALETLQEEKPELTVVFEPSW

Structure (SMILES)	IC50 [µM]
O=C(N[C@@H]1CCC[C@H]2CC[C@@H]1N2c1nnn[nH]1)C1(c2ccc(C3CC3)cc2O)CC1 [93C*, N-((1S,2R,6S)-9-(1H-tetrazol-5-yl)-9-azabicyclo[4.2.1]nonan-2-yl)-1-(4-cyclopropyl-2-hydroxyphenyl)cyclopropane-1-carboxamide]	10 to 50
C[C@@H]1C[C@H]2CC[C@@H]([C@@H](NC(=O)C3(c4ccc(C(F)(F)F)cc4)CC3)C1)N2c1nnn[nH]1 [104D*, N-((1S,2S,4S,6R)-4-methyl-9-(1H-tetrazol-5-yl)-9-azabicyclo[4.2.1]nonan-2-yl)-1-(4-(trifluoromethyl)phenyl)cyclopropane-1-carboxamide]	10 to 50

Same assay, conditions: displacement of 3H-MCC950; read-out: SPA IC50

Structure (SMILES)	IC50 [µM]
C[C@@H]1CCN(c2nnn[nH]2)C[C@@H]1NC(=O)C1(c2ccc(Cl)cc2)CC1 [Compound 49A, 1-(4-chlorophenyl)-N-[(3R,4R)-4-methy1-1-(1H-tetrazol-5-yl)-3-piperidyl]cyclopropanecarboxamide]	> 100
Cc1cc(C2(C(=O)N[C@@H]3C[C@@H](C)CCN(c4nnn[nH]4)C3)CC2)ccc1C(F)(F)F (single isomer, unassigned) [6C*, N-(5-methyl-1-(1H-tetrazol-5-yl)azepan-3-yl)-1-(3-methyl-4-(trifluoromethyl)phenyl)cyclopropane-1-carboxamide]	> 100
Cc1ccc(C2(C(=O)N[C@@H]3C[C@@H](C)CCN(c4nnn[nH]4)C3)CC2)c(O)c1F (single isomer, unassigned) [74C*]	10 to 50
C[C@@H]1C[C@H](NC(=O)C2(c3ccc(OC(F)F)cc3F)CC2)[C@H]2CC[C@@H]1N2c1nnn[nH]1 (stereo in doubt) [101B*, 1-(4-(difluoromethoxy)-2-fluorophenyl)-N-(4-methyl-8-(1H-tetrazol-5-yl)-8-azabicyclo[3.2.1]octan-2-yl)cyclopropane-1-carboxamide]	> 100
Cc1ccc(C2(C(=O)N[C@@H]3C[C@@H](C)CCN(c4nnn[nH]4)C3)CC2)c(O)c1 (single isomer, unassigned) [67C*]	10 to 50
C[C@H]1C[C@@H](NC(=O)C2(c3ccc(OC(F)(F)F)cc3)CC2)[C@@H]2CC[C@H]1N2c1nnn[nH]1 [82C*, N-((1S,2R,4S,5R)-4-methyl-8-(1H-tetrazol-5-yl)-8-azabicyclo[3.2.1]octan-2-yl)-1-(4-(trifluoromethoxy)phenyl)cyclopropane-1-carboxamide]	> 100
C[C@H]1C[C@H](NC(=O)C2(c3ccc(Cl)cc3)CC2)[C@@H]2CC[C@H]1N2c1nnn[nH]1 [80D*, 1-(4-chlorophenyl)-N-((1S,2S,4S,5R)-4-methyl-8-(1H-tetrazol-5-yl)-8-azabicyclo[3.2.1]octan-2-yl)cyclopropane-1-carboxamide]	50 to 100
C[C@H]1CCN(c2nnn[nH]2)C[C@H](NC(=O)C2(c3ccc(C4CC4)cc3)CC2)C1 (single isomer, unassigned) [2C*]	10 to 50
C[C@H]1CCN(c2nnn[nH]2)C[C@H](NC(=O)C2(c3ccc(Br)cc3)CC2)C1 (single isomer, unassigned) [59C*]	50 to 100
C[C@H]1CCN(c2nnn[nH]2)C[C@@H](NC(=O)C2(c3ccc(C(F)(F)F)c(F)c3)CC2)C1 (single isomer, unassigned) [66D*]	10 to 50
Cc1ccc(C2(C(=O)N[C@@H]3C[C@@H](C)CCN(c4nnn[nH]4)C3)CC2)cc1 (single isomer, unassigned) [71C*]	50 to 100
Cc1c(Cl)ccc(C2(C(=O)N[C@@H]3C[C@@H](C)CCN(c4nnn[nH]4)C3)CC2)c1O (single isomer, unassigned) [21C*, 1-(4-chloro-2-hydroxy-3-methylphenyl)-N-(5-methyl-1-(1H-tetrazol-5-yl)azepan-3-yl)cyclopropane-1-carboxamide]	> 100
Cc1ccc(C2(C(=O)N[C@H]3C[C@H](C)CCN(c4nnn[nH]4)C3)CC2)c(O)c1 (single isomer, unassigned) [67B*]	< 1
C[C@@H]1C[C@H](NC(=O)C2(c3ccc(C(F)(F)F)cc3)CC2)[C@H]2CC[C@@H]1N2c1nnn[nH]1 [79B*, N-((1R,2S,4R,5S)-4-methy1-8-(1H-tetrazol-5-yl)-8-azabicyclo[3.2.1]octan-2-yl)-1-(4-(trifluoromethyl)phenyl)cyclopropane-1-carboxamide]	10 to 50
O=C(N[C@H]1CC[C@@H]2CC[C@H]1N2c1nnn[nH]1)C1(c2ccc(Cl)cc2O)CC1 [75B*, N-((1R,2S,5R)-8-(1H-tetrazol-5-yl)-8-azabicyclo[3.2.1]octan-2-yl)-1-(4-chloro-2-hydroxyphenyl)cyclopropane-1-carboxamide]	1 to 10
C[C@H]1C[C@H](NC(=O)C2(c3ccc(C4CC4)c(F)c3O)CC2)[C@@H]2CC[C@H]1N2c1nnn[nH]1 [83D*, 1-(4-cyclopropyl-3-fluoro-2-hydroxyphenyl)-N-((1S,2S,4S,5R)-4-methy1-8-(1H-tetrazol-5-yl)-8-azabicyclo[3.2.1]octan-2-yl)cyclopropane-1-carboxamide]	> 100
C[C@H]1CCN(c2nnn[nH]2)C[C@H](NC(=O)C2(c3c(F)cc(Cl)cc3F)CC2)C1 (single isomer, unassigned) [72C*]	> 100
C[C@H]1C[C@@H](NC(=O)C2(c3ccc(OC(F)F)cc3)CC2)[C@@H]2CC[C@H]1N2c1nnn[nH]1 (single isomer, unassigned) [35C*]	> 100

Structure (SMILES)	IC50 [µM]
C[C@@H]1CCN(c2nnn[nH]2)C[C@@H](NC(=O)C2(c3ccc(Cl)c(F)c3O)CC2)C1 (single isomer, unassigned) [18B*, 1-(4-chloro-3-fluoro-2-hydroxyphenyl)-N-(5-methyl-1-(1H-tetrazol-5-yl)azepan-3-yl)cyclopropane-1-carboxamide]	1 to 10
O=C(N[C@H]1CC[C@@H]2CC[C@H]1N2c1nnn[nH]1)C1(c2ccc(OC(F)(F)F)cc2O)CC1 [78B*, N-((1R,2S,5R)-8-(1H-tetrazol-5-yl)-8-azabicyclo[3.2.1]octan-2-yl)-1-(2-hydroxy-4-(trifluoromethoxy)phenyl)cyclopropane-1-carboxamide]	1 to 10
C[C@H]1C[C@H](NC(=O)C2(c3ccc(OC(F)F)cc3)CC2)[C@H]2CC[C@@H]1N2c1nnn[nH]1 (single isomer, unassigned) [35F*]	50 to 100
O=C(NC1CC(C2CC2)CN(c2nnn[nH]2)C1)C1(c2ccc(Cl)cc2)CC1 (single isomer, unassigned) [Rac-13B*/C*, 1-(4-chlorophenyl)-N-(5-cyclopropyl-1-(1H-tetrazol-5-yl)piperidin-3-yl)cyclopropane-1-carboxamide]	50 to 100
C[C@H]1CCN(c2nnn[nH]2)C[C@@H](NC(=O)C2(c3ccc(Cl)cc3F)CC2)C1 (single isomer, unassigned) [56D*]	10 to 50
C[C@H]1CC[C@@H](NC(=O)C2(c3ccc(Cl)cc3)CC2)CN(c2nnn[nH]2)C1 (single isomer, unassigned) [36A*, 1-(4-chlorophenyl)-N-(6-methyl-1-(1H-tetrazol-5-yl)azepan-3-yl)cyclopropane-1-carboxamide]	< 1
C[C@H]1CCN(c2nnn[nH]2)C[C@H](NC(=O)C2(c3ccc(C(F)(F)F)c(F)c3)CC2)C1 (single isomer, unassigned) [66C*]	> 100
C[C@@H]1CCN(c2nnn[nH]2)C[C@@H](NC(=O)C2(c3ccc(Cl)cc3F)CC2)C1 (single isomer, unassigned) [56B*]	1 to 10
C[C@@H]1CCN(c2nnn[nH]2)C[C@@H](NC(=O)C2(c3ccc(C4CCC4)cc3)CC2)C1 (single isomer, unassigned) [8B*, 1-(4-cyclobutylphenyl)-N-(5-methyl-1-(1H-tetrazol-5-yl)azepan-3-yl)cyclopropane-1-carboxamide]	10 to 50
C[C@@H]1C[C@H](NC(=O)C2(c3ccc(C(F)(F)F)cc3F)CC2)[C@H]2CC[C@@H]1N2c1nnn[nH]1 [84B*, 1-(2-fluoro-4-(trifluoromethyl)phenyl)-N-((1R,2S,4R,5S)-4-methyl-8-(1H-tetrazol-5-yl)-8-azabicyclo[3.2.1]octan-2-yl)cyclopropane-1-carboxamide]	10 to 50
C[C@H]1CCN(c2nnn[nH]2)C[C@H](NC(=O)C2(c3ccc(C(F)(F)F)cc3)CC2)C1 (single isomer, unassigned) [61B*]	1 to 10
C[C@H]1[C@H](NC(=O)C2(c3ccc(Cl)cc3)CC2)CCCN1c1nnn[nH]1 [Compound 40C, 1-(4-chlorophenyl)-N-[(2S,3R)-2-methyl-1-(1H-tetrazol-5-yl)-3-piperidyl]cyclopropanecarboxamide]	> 100
C[C@H]1C[C@H](NC(=O)C2(c3ccc(OC(F)F)cc3O)CC2)[C@@H]2CC[C@H]1N2c1nnn[nH]1 [43D*, N-((1S,2S,4S,5R)-4-methy1-8-(1H-tetrazol-5-yl)-8-azabicyclo[3.2.1]octan-2-yl)-1-(4-(difluoromethoxy)-2-hydroxyphenyl)cyclopropane-1-carboxamide]	10 to 50
C[C@H]1CCN(c2nnn[nH]2)C[C@H](NC(=O)C2(c3ccc(C(F)(F)F)cc3F)CC2)C1 (single isomer, unassigned) [68C*]	> 100
C[C@H]1CCN(c2nnn[nH]2)C[C@@H](NC(=O)C2(c3ccc(C(F)(F)F)cc3F)CC2)C1 (single isomer, unassigned) [68D*]	1 to 10
C[C@H]1CCN(c2nnn[nH]2)C[C@@H](NC(=O)C2(c3ccc(Cl)c(F)c3F)CC2)C1 (single isomer, unassigned) [4D*, 1-(4-chloro-2,3-difluorophenyl)-N-(5-methyl-1-(1H-tetrazol-5-yl)azepan-3-yl)cyclopropane-1-carboxamide]	1 to 10
C[C@H]1CCN(c2nnn[nH]2)C[C@H](NC(=O)C2(c3ccc(Cl)c(F)c3)CC2)C1 (single isomer, unassigned) [65C*]	10 to 50
C[C@@H]1CCN(c2nnn[nH]2)C[C@@H](NC(=O)C2(c3ccc(OC(F)(F)F)cc3F)CC2)C1 (single isomer, unassigned) [64B*]	10 to 50

Same assay, conditions: read-out: SPA IC50

Structure (SMILES)	IC50 [µM]
Cn1nnnc1-c1cccc(NC(=O)C2(c3ccc(Cl)cc3)CC2)c1 [Comparative Example E1, 1-(4-chlorophenyl)-N-(3-(1-methyl-1H-tetrazol-5-yl)phenyl)cyclopropane-1-carboxamide, reference compound]	> 500

Reference: patent US20260007684A1, “AMIDE DERIVATIVES FOR INHIBITING NLRP3 AND USES THEREOF” (Ventus Therapeutics U.S., Inc., priority 2023, published 2026)
